Data reported in US20100113613A1, “CYCLOHEXANE POLYALCOHOL FORMULATION FOR TREATMENT OF DISORDERS OF PROTEIN AGGREGATION” (WARATAH PHARMACEUTICALS, priority 2006, published 2010).

Legend:
[1] = TgCRND8 (outbred C3H/C57B16 background), mouse, in vivo
[2] = test system: TgCRND8 mice; settings: despite in vitro efficacy
[3] = Orally administered tritiated-inositol uptake in plasma and brain (FIG. 16); type: in vivo
Method: FIG. 16. Bioavailability of scyllo- (solid line) and myo-inositol (dashed line) in plasma and brain, determined using orally administered tritiated-inositol uptake studies. […] Brain levels also rose rapidly and were maximal at 8 h and 32 h, respectively.

[4] = Brain and CSF levels of inositols after one month ad libitum dosing (GC/MS), Example 2; type: in vivo, TgCRND8 mice; settings: TgCRND8 mice, myo-cyclohexanehexyl ad libitum for one month
Method: Study drugs were administered either at 30 mg/kg by oral gavage, or ad libitum by dissolution in drinking water. For administration in drinking water, study drugs were dissolved at 10 mg/ml. The average amount of water taken from the bottle was 3 ml daily per animal. The average mouse weight was 33 g. […] Quantification of scyllo-cyclohexanehexyl and myo-inositol. Scyllo-cyclohexanehexyl and myo-cyclohexanehexyl levels in the brain and CSF were analyzed using gas chromatography/mass spectrometry. D-chiro-inositol was used as an internal control, as it is not present in these biological samples. Derivatization: To increase the volatility and thermal stability of these compounds and to allow for proper peak separation, these samples need to first be derivatized. The derivatization was adapted from a method presented previously (Shetty, H U, et al, 1995, Anal. Biochem. 224:279-85), where the hydroxyl groups of the cyclohexanehexyl were replaced with acetyl groups. […] Similarly, a 5-15 μl sample of CSF was mixed with 1 ml of methanol and allowed to stand at room temperature for 5 minutes. The resulting suspension was centrifuged (5 min, 5000×g) and the supernatant transferred to a glass tube (Teflon-lined cap). […] These samples were then evaporated to complete dryness (Speedvac; 60° C.). […] This mixture was flushed with dry nitrogen, securely capped and the tubes heated (80° C.; 30 min). Following derivatization, samples were cooled (RT) and the unreacted acetylating reagent evaporated using a steady stream of nitrogen gas. The derivatized products were re-dissolved (4 ml; hexane-ethyl acetate (80:20, v/v)) and washed with 1 ml of 5% sodium hydrogencarbonate solution. […] The residue was reconstituted in 100 μl; ethyl acetate. 1 μL of this was injected into the GC/MS system. A similar procedure was followed using stock concentrations of scyllo- and myo-cyclohexanehexols, which were then used to generate concentration curves (in this case the internal standard was derivatized separately and then added). GC/MS was performed using a Perkin Elmer TurboMass Autosystem XL, with a quadrupole mass spectrometer and electron ionization. Gas chromatography was performed using a 30 m×0.25 mm×0.25 μm ZB 5 (5% diphenyl/95% dimethylpolysiloxane) column, using the carrier gas Helium (1 ml/min). Samples were injected with the split set to 50 at 1 min and 0 at 5 min, the injector temperature was set at 300° C. and an initial oven temperature of 80° C. After a hold of 1 min, the temperature was ramped at 45° C./min to 187° C. and held there for 15 min. […] Sample peaks were analyzed using selected-ion monitoring, using m/z 168 for determining cyclohexanehexyl levels in the brain and CSF and m/z 373 for determining cyclohexanehexyl levels in plasma, as monitoring the larger ion reduced noise. […]

increase in brain myo inositol levels over untreated controls [1]: 1.2 fold | time of maximal brain levels [3]: 8 h | time of peak plasma levels post administration [3]: 2 h | increase of myo-cyclohexanehexyl level in brain vs untreated ([4]; p<0.001): 20% | levels of myo-cyclohexanehexyl in CSF vs untreated ([4]; p=0.35): did not show any significant changes
Structure (SMILES): O[C@H]1[C@H](O)[C@@H](O)[C@H](O)[C@@H](O)[C@H]1O [myo-inositol, reference compound]
efficacy for the treatment of TgCRND8 mice [2]: not shown to be effective
